We go through 17 molecules from patent US20240398812A1 (Caraway Therapeutics, Inc., priority 2021, published 2024).

Holding throughout (type): cell-based
Assay [1] concerns the target human TRPML1 (Homo sapiens, UniProt Q9GZU1). As to the kind of experiment: Fluorescent TRPML1 assay (Fluo4-AM calcium fluorescence, HEK-293 Trex cells). The method in brief:
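Tet-inducible HEK-293 Trex cells stably expressing surface-targeted mutant human TRPML1, induced with 0.5 ug/mL doxycycline overnight, loaded with Fluo4-AM and suspended in Ringer's with 10 mM calcium. Compounds tested from 20 μM to 6 nM final, half-log steps, in triplicate; fluorescence (ex 480/em 540) normalised to plate controls, EC50 by non-linear regression.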

Assay [2] has as its target T1, TRPML3 (Homo sapiens, UniProt Q8TDD5).
T1 construct: expressed in transfected cells
T1 sequence (Q8TDD5 1-553): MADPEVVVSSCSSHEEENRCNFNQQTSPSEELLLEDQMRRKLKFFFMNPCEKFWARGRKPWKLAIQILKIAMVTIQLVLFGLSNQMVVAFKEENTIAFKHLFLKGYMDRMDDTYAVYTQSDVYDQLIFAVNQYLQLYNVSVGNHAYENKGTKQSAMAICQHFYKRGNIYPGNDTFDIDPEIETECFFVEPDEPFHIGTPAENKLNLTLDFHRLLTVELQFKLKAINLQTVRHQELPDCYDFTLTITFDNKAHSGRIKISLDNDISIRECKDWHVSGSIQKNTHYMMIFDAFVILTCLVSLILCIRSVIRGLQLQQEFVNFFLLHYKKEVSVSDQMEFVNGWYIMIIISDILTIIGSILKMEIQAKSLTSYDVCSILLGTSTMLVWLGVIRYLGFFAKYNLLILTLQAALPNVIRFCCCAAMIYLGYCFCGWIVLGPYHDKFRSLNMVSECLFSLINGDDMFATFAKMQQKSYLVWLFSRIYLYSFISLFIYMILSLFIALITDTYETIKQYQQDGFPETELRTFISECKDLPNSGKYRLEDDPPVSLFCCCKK
The assay can be described thus: Fluorescent TRPML3 assay (as for TRPML1). The method in brief:
(§1)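 HEK-293 Trex cells with tet-inducible (0.5 ug/mL doxycycline, overnight) surface-targeted mutant channel, Fluo4-AM loaded, suspended in Ringer's with 10 mM calcium. Compounds tested 20 µM to 6 nM final, half-log steps, triplicate; fluorescence at ex 480/em 540 nm. EC50 by non-linear regression of percent activity versus plate controls.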

Assay [3] deals with T2, TRPML2 (Homo sapiens, UniProt Q8IZK6).
T2 construct: expressed in transfected cells
T2 sequence (Q8IZK6 1-566): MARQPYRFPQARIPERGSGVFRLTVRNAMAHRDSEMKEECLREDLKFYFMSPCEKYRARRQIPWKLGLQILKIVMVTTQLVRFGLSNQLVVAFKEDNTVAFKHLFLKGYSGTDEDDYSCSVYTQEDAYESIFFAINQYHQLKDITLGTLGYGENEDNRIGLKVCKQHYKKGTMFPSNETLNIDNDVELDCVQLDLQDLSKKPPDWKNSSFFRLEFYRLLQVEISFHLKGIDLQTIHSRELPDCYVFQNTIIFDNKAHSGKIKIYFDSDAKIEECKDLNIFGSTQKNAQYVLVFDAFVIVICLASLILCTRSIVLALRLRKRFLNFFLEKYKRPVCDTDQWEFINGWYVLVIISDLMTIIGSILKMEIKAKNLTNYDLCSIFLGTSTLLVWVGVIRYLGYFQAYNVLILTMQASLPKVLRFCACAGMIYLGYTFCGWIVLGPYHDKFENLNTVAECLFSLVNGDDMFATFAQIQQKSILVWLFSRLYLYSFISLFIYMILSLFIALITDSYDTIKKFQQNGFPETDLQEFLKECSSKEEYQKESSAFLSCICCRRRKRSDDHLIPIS
The assay can be described thus: Fluorescent TRPML2 assay (as for TRPML1). The method in brief:
as §1

Chain of human TRPML1 (Q9GZU1 whole entry L15A/L16A/L577A/L578A, form open): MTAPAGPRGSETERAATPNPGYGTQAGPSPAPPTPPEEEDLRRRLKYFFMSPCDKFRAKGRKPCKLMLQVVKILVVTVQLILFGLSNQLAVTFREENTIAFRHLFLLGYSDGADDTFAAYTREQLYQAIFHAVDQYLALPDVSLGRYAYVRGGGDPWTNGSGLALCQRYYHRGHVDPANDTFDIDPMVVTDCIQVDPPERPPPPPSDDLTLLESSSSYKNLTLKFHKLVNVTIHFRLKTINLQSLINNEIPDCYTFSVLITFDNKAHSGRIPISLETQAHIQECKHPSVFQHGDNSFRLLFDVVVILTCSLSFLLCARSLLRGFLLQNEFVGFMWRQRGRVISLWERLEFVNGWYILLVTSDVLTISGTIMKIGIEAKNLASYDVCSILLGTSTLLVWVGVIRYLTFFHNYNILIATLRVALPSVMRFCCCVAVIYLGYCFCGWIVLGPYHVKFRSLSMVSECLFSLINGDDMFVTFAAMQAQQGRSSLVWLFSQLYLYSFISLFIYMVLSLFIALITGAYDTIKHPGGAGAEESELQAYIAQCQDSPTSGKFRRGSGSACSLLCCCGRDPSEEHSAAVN

Turning to `C[C@@H]1CN(c2ncnc3c2c(-c2ccccc2F)cn3-c2cc(C#N)ccn2)[C@@H](C)CN1C(=O)C(C)(C)O` [Compound 158, 2-(5-(2-fluorophenyl)-4-((2S,5R)-4-(2-hydroxy-2-methylpropanoyl)-2,5-dimethylpiperazin-1-yl)-7H-pyrrolo[2,3-d]pyrimidin-7-yl)isonicotinonitrile], the EC50 (in general, the midpoint of the concentration-response curve) in assay [1] (Table 3, compounds 101-177) was less than 0.1 µM; in assay [2] (Table 3, compounds 101-177), less than 0.1 µM; in assay [3] (Table 3, compounds 101-177), 0.1 to 0.5 µM.

Take `C[C@@H]1CN(c2cn(-c3cc(C#N)ccn3)c3ncnc(N4CCN(C(=O)CC(C)(C)C)C[C@@H]4C)c23)CCO1` [Compound 165, 2-(4-((S)-4-(3,3-dimethylbutanoyl)-2-methylpiperazin-1-yl)-5-((R)-2-methylmorpholino)-7H-pyrrolo[2,3-d]pyrimidin-7-yl)isonicotinonitrile]: the EC50 was less than 0.1 µM in assay [1] (Table 3, compounds 101-177); less than 0.1 µM in assay [2] (Table 3, compounds 101-177); 0.1 to 0.5 µM in assay [3] (Table 3, compounds 101-177).

As for `CCCN(CC)c1cn(-c2cc(C#N)ccn2)c2ncnc(N3CCN(C(=O)CC(C)(C)C)C[C@@H]3C)c12` [Compound 166, (S)-2-(4-(4-(3,3-dimethylbutanoyl)-2-methylpiperazin-1-yl)-5-(ethyl(propyl)amino)-7H-pyrrolo [2,3-d]pyrimidin-7-yl)isonicotinonitrile], the EC50 in assay [1] (Table 3, compounds 101-177) is less than 0.1 µM; in assay [2] (Table 3, compounds 101-177), less than 0.1 µM; in assay [3] (Table 3, compounds 101-177) it was 0.1 to 0.5 µM.

Regarding `CC(C)(O)C(=O)N1CCN(c2ncnc3c2c(-c2ccccc2F)cn3-c2cc(C#N)ccn2)C(C)(C)C1` [Compound 170, 2-(5-(2-fluorophenyl)-4-(4-(2-hydroxy-2-methylpropanoyl)-2,2-dimethylpiperazin-1-yl)-7H-pyrrolo[2,3-d]pyrimidin-7-yl)isonicotinonitrile], the EC50 was less than 0.1 µM in assay [1] (Table 3, compounds 101-177); less than 0.1 µM in assay [2] (Table 3, compounds 101-177); 0.1 to 0.5 µM in assay [3] (Table 3, compounds 101-177).

As for `Cc1nccnc1-c1cn(-c2cc(C#N)ccn2)c2ncnc(N3C[C@@H](C)N(C(=O)CC(C)C)C[C@@H]3C)c12` [Compound 173, 2-(4-((2S,5R)-2,5-dimethyl-4-(3-methylbutanoyl)piperazin-1-yl)-5-(3-methylpyrazin-2-yl)-7H-pyrrolo[2,3-d]pyrimidin-7-yl)isonicotinonitrile], the EC50 in assay [1] (Table 3, compounds 101-177) was 0.1 to 0.5 µM; in assay [2] (Table 3, compounds 101-177) it was greater than 2 µM; in assay [3] (Table 3, compounds 101-177), greater than 2 µM.

In the case of `CC(C)C(=O)N1C[C@@H](C)N(c2ncnc3c2c(-c2ccccc2F)cn3-c2cc(C#N)ccn2)C[C@@H]1C` [Compound 201, 2-(5-(2-fluorophenyl)-4-((2R,5S)-4-isobutyryl-2,5-dimethylpiperazin-1-yl)-7H-pyrrolo[2,3-d]pyrimidin-7-yl)isonicotinonitrile], the EC50 in assay [1] (Table 3, compounds 201-283) was 0.5 to 2 µM; in assay [2] (Table 3, compounds 201-283), 0.1 to 0.5 µM; in assay [3] (Table 3, compounds 201-283), 0.1 to 0.5 µM.

For `C[C@@H]1CN(c2ncnc3c2c(C(F)(F)F)cn3-c2cccc(Cl)c2)[C@@H](C)CN1C(=O)C(C)(C)C` [Compound 204, 1-((2R,5S)-4-(7-(3-chlorophenyl)-5-(trifluoromethyl)-7H-pyrrolo[2,3-d]pyrimidin-4-yl)-2,5-dimethylpiperazin-1-yl)-2,2-dimethylpropan-1-one], the EC50 in assay [1] (Table 3, compounds 201-283) is less than 0.1 µM; in assay [2] (Table 3, compounds 201-283) it was less than 0.1 µM; in assay [3] (Table 3, compounds 201-283) it was 0.1 to 0.5 µM.

Consider `C[C@@H]1CN(c2ncnc3c2c(C2CC2)cn3-c2cccc(Cl)c2)[C@@H](C)CN1C(=O)C(C)(C)C` [Compound 206, 1-((2R,5S)-4-(7-(3-chlorophenyl)-5-cyclopropyl-7H-pyrrolo[2,3-d]pyrimidin-4-yl)-2,5-dimethylpiperazin-1-yl)-2,2-dimethylpropan-1-one], for which the EC50 was less than 0.1 µM in assay [1] (Table 3, compounds 201-283); less than 0.1 µM in assay [2] (Table 3, compounds 201-283); 0.1 to 0.5 µM in assay [3] (Table 3, compounds 201-283).

As to `C[C@@H]1CN(c2ncnc3c2c(C(F)(F)F)cn3-c2cc(C#N)ccn2)[C@@H](C)CN1C(=O)C(C)(C)C` [Compound 207, 2-(4-((2S,5R)-2,5-dimethyl-4-pivaloylpiperazin-1-yl)-5-(trifluoromethyl)-7H-pyrrolo[2,3-d]pyrimidin-7-yl)isonicotinonitrile], the EC50 in assay [1] (Table 3, compounds 201-283) is less than 0.1 µM; in assay [2] (Table 3, compounds 201-283), less than 0.1 µM; in assay [3] (Table 3, compounds 201-283), 0.1 to 0.5 µM.

As to `COC(C)(C)C(=O)N1C[C@H](C)N(c2ncnc3c2c(C(F)(F)F)cn3-c2cc(C#N)ccn2)C[C@H]1C` [Compound 208, 2-(4-((2S,5R)-4-(2-methoxy-2-methylpropanoyl)-2,5-dimethylpiperazin-1-yl)-5-(trifluoromethyl)-7H-pyrrolo[2,3-d]pyrimidin-7-yl)isonicotinonitrile], the EC50 in assay [1] (Table 3, compounds 201-283) was less than 0.1 µM; in assay [2] (Table 3, compounds 201-283) it was less than 0.1 µM; in assay [3] (Table 3, compounds 201-283) it was 0.5 to 2 µM.

Take `C[C@@H]1CN(c2ncnc3c2c(C(F)(F)F)cn3-c2cc(C#N)ccn2)[C@@H](C)CN1C(=O)CC(C)(C)C` [Compound 209, 2-(4-((2S,5R)-4-(3,3-dimethylbutanoyl)-2,5-dimethylpiperazin-1-yl)-5-(trifluoromethyl)-7H-pyrrolo[2,3-d]pyrimidin-7-yl)isonicotinonitrile]: the EC50 was less than 0.1 µM in assay [1] (Table 3, compounds 201-283); less than 0.1 µM in assay [2] (Table 3, compounds 201-283); less than 0.1 µM in assay [3] (Table 3, compounds 201-283).

Take `C[C@@H]1CN(c2ncnc3c2c(C2CC2)cn3-c2cccc(F)c2)[C@@H](C)CN1C(=O)C(C)(C)C` [Compound 214, 1-((2R,5S)-4-(5-cyclopropyl-7-(3-fluorophenyl)-7H-pyrrolo[2,3-d]pyrimidin-4-yl)-2,5-dimethylpiperazin-1-yl)-2,2-dimethylpropan-1-one]: the EC50 in assay [1] (Table 3, compounds 201-283) was less than 0.1 µM; in assay [2] (Table 3, compounds 201-283) it was 0.5 to 2 µM; in assay [3] (Table 3, compounds 201-283) it was greater than 2 µM.

On to `C[C@H]1CN(C(=O)C(C)(C)C)CCN1c1ncnc2c1c(C1CC1)cn2-c1cccc(F)c1` [Compound 215, (S)-1-(4-(5-cyclopropyl-7-(3-fluorophenyl)-7H-pyrrolo[2,3-d]pyrimidin-4-yl)-3-methylpiperazin-1-yl)-2,2-dimethylpropan-1-one], for which the EC50 in assay [1] (Table 3, compounds 201-283) lay within 0.1 to 0.5 µM; in assay [2] (Table 3, compounds 201-283), 0.5 to 2 µM; in assay [3] (Table 3, compounds 201-283) it was 0.1 to 0.5 µM.

`C[C@@H]1CN(c2ncnc3c2c(N2CCC2)cn3-c2cccc(Cl)c2)[C@@H](C)CN1C(=O)C(C)(C)C` [Compound 220, 1-((2R,5S)-4-(5-(azetidin-1-yl)-7-(3-chlorophenyl)-7H-pyrrolo[2,3-d]pyrimidin-4-yl)-2,5-dimethylpiperazin-1-yl)-2,2-dimethylpropan-1-one]: the EC50 in assay [1] (Table 3, compounds 201-283) is less than 0.1 µM; in assay [2] (Table 3, compounds 201-283), less than 0.1 µM; in assay [3] (Table 3, compounds 201-283), 0.1 to 0.5 µM.

Take `COC(C)(C)C(=O)N1C[C@H](C)N(c2ncnc3c2c(C(F)(F)F)cn3-c2cccc(F)c2)C[C@H]1C` [Compound 223, 1-((2R,5S)-4-(7-(3-fluorophenyl)-5-(trifluoromethyl)-7H-pyrrolo[2,3-d]pyrimidin-4-yl)-2,5-dimethylpiperazin-1-yl)-2-methoxy-2-methylpropan-1-one]: the EC50 in assay [1] (Table 3, compounds 201-283) is less than 0.1 µM; in assay [2] (Table 3, compounds 201-283), 0.1 to 0.5 µM; in assay [3] (Table 3, compounds 201-283) it was greater than 2 µM.

Consider `C[C@@H]1CN(c2nccc3c2c(C2CC2)cn3-c2cccc(F)c2)[C@@H](C)CN1C(=O)C(C)(C)C` [Compound 229, 1-((2R,5S)-4-(3-cyclopropyl-1-(3-fluorophenyl)-1H-pyrrolo[3,2-c]pyridin-4-yl)-2,5-dimethylpiperazin-1-yl)-2,2-dimethylpropan-1-one], for which the EC50 was less than 0.1 µM in assay [1] (Table 3, compounds 201-283); less than 0.1 µM in assay [2] (Table 3, compounds 201-283); greater than 2 µM in assay [3] (Table 3, compounds 201-283).

Take `C[C@@H]1CN(c2ncnc3c2c(-c2ccccc2F)cn3-c2cc(C#N)ccn2)[C@@H](C)CN1C(=O)C(C)(C)C` [Compound 230, 2-(4-((2S,5R)-2,5-dimethyl-4-pivaloylpiperazin-1-yl)-5-(2-fluorophenyl)-7H-pyrrolo[2,3-d]pyrimidin-7-yl)isonicotinonitrile]: the concentration giving a half-maximal response (EC50) in assay [1] (Table 3, compounds 201-283) is less than 0.1 µM; in assay [2] (Table 3, compounds 201-283) it was less than 0.1 µM; in assay [3] (Table 3, compounds 201-283), less than 0.1 µM.
